# Measurements from US20090247570A1, “PHARMACEUTICALS” (Pfizer Inc, priority 2006, published 2009).
# What was measured:
# [1] = test system: HIV-1 (CXCR4 using viral population); experiment: Clinical trial: HIV-1 viral load after 24 weeks in treatment experienced patients infected with a CXCR4 using viral population; type: in vivo; conditions: for Mean VL reduction: after 24 weeks, change from baseline; for Treatment difference in VL reduction: 97.5% confidence interval printed in next row
# Excerpt: (§1) (b) were infected with a non R5 tropic (CXCR4 using viral population) as determined by Monogram Bioscience Phenosense™ assay (WO 02/-99383; U.S. Pat. No. 5,837,464), or were of indeterminate tropism phenotype;
# (c) had been on a stable antiviral regimen for at least 4 weeks prior to randomisation:
# (e) (i) had at least three months previous antiretroviral experience with at least one agent from three of the four antiretroviral drug classes: NTRIs, NNRTIs, protease inhibitors and fusion inhibitors (i.e. were triple class experienced); or
# (ii) had documented resistance to members of two of the four antiretroviral drug classes (i.e. were dual class resistant).
# (§2) The eligible patients were randomised into three groups based on the drug regimens they received.
# (§3) Group 3: optimised background therapy (as above) plus placebo.
# These patients were distributed evenly among the 3 patient groups.
# (§4) The mean of these measurements was taken to be the baseline measurement for each patient.
# (§5) After 24 weeks of treatment, the endpoints (as discussed below) were measured.
# (a) For each patient, the change from baseline in HIV-1 viral load (on a log[base10]scale) was measured.
# (b) The percentage of patients with fewer than (i) 400 and (ii) 50 HIV-1 RNA copies\mL.
# CD8 cell count = experiment: Clinical trial: change from baseline in CD8 cell count (FACS) after 24 weeks; type: in vivo, human; conditions: for Mean change in CD8 count: from baseline
# Experimental: as §1, §2, §3, §5
# (§6) (d) For each patient, the change from baseline in CD4 and CD8 cell count was measured.
# (§7) Cell count was measured by fluorescence activated cell sorting (FACS), which is a standard technique.
# CD4 cell count = experiment: Clinical trial: change from baseline in CD4 cell count (FACS) after 24 weeks; type: in vivo, human; conditions: for Mean change in CD4 count: from baseline
# Excerpt: as §1, §2, §3, §4, §5, §6, §7
# [2] = once daily maraviroc + optimised regimen, 24 weeks
# [3] = twice daily maraviroc + optimised regimen, 24 weeks
# [4] = maraviroc both once and twice daily
# [5] = once daily maraviroc + optimised regimen
# [6] = twice daily maraviroc + optimised regimen
substance,measurement,setting,value
"(N-{(1S)-3-[3-isopropyl-5-methyl-4H-1,2,4-triazole-4-yl]-exo-8-azabicyclo[3.2.1]oct-8-yl}-1-phenylpropyl)-4,4-difluorocyclohexanecarboxamide [maraviroc]",viral load change from baseline,"[1]; maraviroc once daily and twice daily groups, 24 weeks",−1.2 log10
same,Mean VL reduction,[1]; once daily maraviroc 150 mg po (300 mg if OBT without PI or delavirdine) + optimised regimen,−0.91 log10 copies/mL
same,Treatment difference in VL reduction,"[1]; once daily maraviroc + optimised regimen vs placebo + optimised regimen, 24 weeks",+0.06 log10 copies/mL
same,>0.5 log10 VL reduction (percentage of patients),[1]; [2],42.1%
same,>1 log10 VL reduction (percentage of patients),[1]; [2],31.6%
same,VL < 50 counts\mL (percentage of patients),[1]; [2],21.0%^
same,VL < 400 counts/mL (percentage of patients),[1]; [2],24.6%
same,Mean VL reduction,[1]; twice daily maraviroc 150 mg po (300 mg if OBT without PI or delavirdine) + optimised regimen,−1.20 log10 copies/mL
same,Treatment difference in VL reduction,"[1]; twice daily maraviroc + optimised regimen vs placebo + optimised regimen, 24 weeks",−0.23 log10 copies/mL
same,>0.5 log10 VL reduction (percentage of patients),[1]; [3],48.1%
same,>1 log10 VL reduction (percentage of patients),[1]; [3],44.2%
same,VL < 50 counts\mL (percentage of patients),[1]; [3],26.9%
same,VL < 400 counts/mL (percentage of patients),[1]; [3],30.8%
same,increase in CD8 cell count as compared to the placebo,CD8 cell count; [4],clinically meaningful (and statistically significant) increase
same,Mean CD8 cell change,CD8 cell count; maraviroc once daily + OBT,+384.5 cells/μL
same,Mean CD8 cell change,CD8 cell count; maraviroc twice daily + OBT,+338.8 cells/μL
same,Mean change in CD8 count,CD8 cell count; [5],+384.5
same,Mean change in CD8 count,CD8 cell count; [6],+338.8
same,increase in CD4 cell count as compared to the placebo,CD4 cell count; [4],clinically meaningful (and statistically significant) increase
same,mean CD4 change,CD4 cell count; maraviroc once daily + OBT,+59.6 cells/μL
same,mean CD4 change,CD4 cell count; maraviroc twice daily + OBT,+62.2 cells/μL
same,Mean change in CD4 count,CD4 cell count; [5],+59.6
same,Mean change in CD4 count,CD4 cell count; [6],+62.4
